Experiments:
[1] = test system: mice model of increased peritoneal capillary permeability; test: acetic acid-induced increased peritoneal capillary permeability model (Evans blue in peritoneal lavage); type: in vivo, Kunming mice
Protocol: Sixty Kunming mice were randomly divided into control group, SYS18 low, medium, and high‐dose groups (20, 40, and 80 mg/kg, respectively), and positive control group was given celecoxib (40 mg/kg), 10 mice in each group. The mice in each group were administrated with 0.2 mL/10 g once a day for three consecutive days.
One hour after the last administration, 2% Evans blue saline 0.1 mL/10 g was injected via the tail vein, and 0.6% acetic acid 0.2 mL/10 g was injected intraperitoneally immediately. Twenty minutes later, the mice were killed, the abdominal cavity was cut open, and the abdominal cavity was washed several times with 5 mL normal saline to collect washing fluid. The samples were centrifuged at 4700 r/min for 5 min, and the lateral absorbance at the wavelength of 620 nm was measured with a UV spectrophotometer to compare the differences between groups.
Acetic acid‐induced increased peritoneal capillary permeability in mice is a classic model of peripheral inflammation. Anti‐inflammatory effects of SYS18 were evaluated by using an increased peritoneal capillary permeability assay. After intravenous injection of Evans blue saline solution, intraperitoneal injection of acetic acid was used to increase peritoneal capillary permeability in mice. The peritoneal capillary permeability of mice in each group was compared by collecting peritoneal lavage fluid and measuring abdominal Evans blue absorbance.

[2] = test system: MCAO rats; test: neurological score (Zea-Longa) in MCAO rats; type: in vivo, Sprague–Dawley rats; settings: 48 h after surgery
Source text: (§1) C57BL/6 mice were randomly assigned to treatment groups by body weight. Operator blind to treatment status of animals. After the mice were anesthetized, a midline cervical incision was made. The left common carotid artery and external carotid artery were isolated and ligated. Arterial clamps were placed at the preparation line and distal end of the internal carotid artery. An incision was made at the bifurcation of the common carotid artery. 4–0 nylon line was inserted to a depth of 17–20 mm. The nylon line entered the internal carotid artery; then, it entered the skull to the anterior cerebral artery and blocked all blood flow sources in the middle cerebral artery. After keeping ischemic for 1 h, the animals were re‐anesthetized and then pulled out the nylon line for about 1 cm to achieve reperfusion for up to 48 h. The wound was disinfected with iodophor, and the skin was sutured. Put them on the electric blanket to maintain the body temperature after the completion of surgery; then, they were returned to cages upon recovery. For the sham group, except that no nylon line is inserted, other steps are the same as above. Sham group and model group were given 20% polyoxyethylene castor oil. Subsequently, the animals were sacrificed, and the serum and brains were collected for a series of subsequent analyses and studies.
Rats were randomly divided into five groups: Sham group (n = 24), rats received sham operation; MCAO model group (n = 30); SYS18 low‐dose group (7.5 mg/kg, n = 30); SYS18 high‐dose group (15 mg/kg, n = 30); and Positive control group rats were intraperitoneally injected with edaravone (15 mg/kg, n = 30). […]
According to Zea‐Longa 4‐point scoring criteria, the animals were scored for neurological function at 48 h after surgery. […] And the degree of each animal model was scored as follows: 0 point, no symptoms of nerve injury; 1 point, inability to fully extend the forepaw; 2 points, circling laterally; 3 points, tip to the opposite side; 4 points, inability to walk spontaneously and loss of consciousness. […]

[3] = test system: MCAO rats; test: brain water content (dry/wet weight) in MCAO rats; type: in vivo, Sprague–Dawley rats; settings: 48 h reperfusion, model 83.18% ± 0.71%
Protocol: (§2) Rats were randomly divided into five groups: Sham group (n = 24), rats received sham operation; MCAO model group (n = 30); SYS18 low‐dose group (7.5 mg/kg, n = 30); SYS18 high‐dose group (15 mg/kg, n = 30); and Positive control group rats were intraperitoneally injected with edaravone (15 mg/kg, n = 30). The tested compound was dissolved in 20% polyoxyethylene castor oil and was administered 0.5 h before operation and 6, 12, 24, and 36 h after reperfusion. The measurements were carried out 48 h after the operation. Ten animals in each group were used to measure brain water content, and 10 animals in each group were used to detect Evans blue content in brain tissue. Ten animals in each group were used for determination of biochemical indicators and pathological observations and WB experiments.
The brain water content was evaluated by measuring difference between the dry and wet weights of brains. Briefly, after rats were sacrificed after 48 h of reperfusion, the brains were measured immediately to obtain the wet weights. Then, the brains were drying in a constant temperature oven at 100°C for 24 h, followed by measurements to obtain the dry weights. Brain water content was calculated according to the following formula, brain water content = 100% × (wet weight − dry weight)/wet weight.

[4] = test system: MCAO mice; test: brain edema volume by T2-weighted MRI in MCAO mice; type: in vivo, C57BL/6 mice; settings: SYS18 30 mg/kg twice a day, about 48 h after MCAO, model 36.64% ± 2.69%, p < 0.0001
Source text: as §1
Serial brain images were acquired approximately 48 h after MCAO. […]

[5] = test system: MDA; test: serum MDA in MCAO rats (kit); type: in vivo, Sprague–Dawley rats; settings: 15 mg/kg (high dose), 48 h, p < 0.05
Protocol: as §2
(§3) Blood sample was collected at 48 h after MCAO. After centrifugation at 4°C × 12,000 g for 10 min, the clear supernatant was stored at −80°C. The components of SOD, MDA, TNF‐α, and IL‐1β in the blood samples were measured according to the instructions of the assay kits.

[6] = test system: SOD; test: serum SOD in MCAO rats (kit); type: in vivo, Sprague–Dawley rats; settings: 15 mg/kg, 48 h
Protocol: as §2, §3

[7] = test system: TNF‐α; test: serum TNF-α in MCAO rats (ELISA); type: in vivo, Sprague–Dawley rats; settings: 15 mg/kg, 48 h, p < 0.05
Protocol: as §2, §3

[8] = test system: IL‐1β; test: serum IL-1β in MCAO rats (ELISA); type: in vivo, Sprague–Dawley rats; settings: 15 mg/kg, 48 h, p < 0.05
Protocol: as §2, §3

[9] = test system: MCAO rats; test: hematoxylin and eosin staining of brain tissue in MCAO rats; type: in vivo, Sprague–Dawley rats; settings: high-dose SYS18 (15 mg/kg), 48 h ischemia–reperfusion
Protocol: as §2
Hematoxylin and eosin staining were used to observe the effect of SYS18 on pathological changes in ischemia–reperfusion brain tissue. After 48 h of ischemia–reperfusion, the rats were sacrificed, and the brains were immediately fixed with 4% paraformaldehyde after transcranial perfusion with ice‐cold saline (The damaged brain is located in the ischemic penumbra of the right brain. Through HE staining and pathological sectioning under a microscope, the area where neuronal cells are morphologically intact and have not yet degenerated or necrotic is determined as the ischemic penumbra). […]

[10] = test system: MCAO rats; test: blood–brain barrier permeability (Evans blue content in brain) in MCAO rats; type: in vivo, Sprague–Dawley rats; settings: 48 h
Protocol: as §2
The integrity of the BBB was investigated using Evans blue (EB). Forty‐six hours after reperfusion, rats were injected with EB (4% saline, 4 mL/kg) via the tail vein. Two hours later, rats were anesthetized and perfused with saline through the left ventricle until colorless perfusate. After hydrangea and brainstem were removed, the brains were collected and homogenized. Evans blue was extracted from the brain with N,N‐dimethylformamide. After centrifugation at 3700 rpm for 15 min, the absorbance of supernatant was detected at 620 nm wavelength.

[11] = test system: syndecan‐1; test: glycocalyx component syndecan-1 in MCAO rats (ELISA); type: in vivo, Sprague–Dawley rats; settings: SYS18 high dose 15 mg/kg, 48 h, p < 0.05
Protocol: as §2
(§4) Blood and brain sample were collected at 48 h after MCAO. After centrifugation at 4°C × 12,000 g for 10 min, the clear supernatant was stored at −80°C. Their concentrations of syndecan‐1, HS, and heparanase (HPSE) were determined using an ELISA kit. […] Substrates A and B were added, and the substrate was catalyzed by HRP to produce a product, which eventually converted under the action of a stop solution, and the absorbance (OD value) was measured at a wavelength of 450 nm on a microplate reader.

[12] = test system: HS; test: glycocalyx component HS in serum of MCAO rats (ELISA); type: in vivo, Sprague–Dawley rats; settings: SYS18 high dose 15 mg/kg, 48 h, p < 0.05
Protocol: as §2, §4

[13] = test system: heparanase (HPSE); test: heparanase (HPSE) in brain of MCAO rats (ELISA); type: in vivo, Sprague–Dawley rats; settings: SYS18 high dose 15 mg/kg, 48 h, p < 0.05
Protocol: as §2, §4

[14] = test system: claudin‐5; test: immunofluorescence of claudin-5 in brain of MCAO rats; type: in vivo, Sprague–Dawley rats; settings: high-dose SYS18 (15 mg/kg)
Protocol: as §2
(§5) Immunofluorescence testing selects the same area as HE staining to observe and analyze the fluorescence level in the field of view. After deparaffinization of the paraffin sections to water, the tissue sections were subjected to antigen retrieval in a microwave oven in a retrieval box filled with citric acid antigen retrieval buffer (pH 6.0), and the sections were incubated overnight at 4°C with rabbit monoclonal anti‐MMP‐9 (1:100), rabbit polyclonal anti‐claudin‐5 (1:200). […]

[15] = test system: MMP‐9; test: immunofluorescence of MMP-9 in brain of MCAO rats; type: in vivo, Sprague–Dawley rats; settings: high-dose SYS18 (15 mg/kg)
Protocol: as §2, §5

[16] = blood–brain distribution and PK of SYS18 in rats after intraperitoneal injection; settings: for Kp: brain/plasma
Protocol: The blood samples were anticoagulated with EDTA and stored at 4°C, then centrifuged at 4°C at 4000 r/min for 10 min. The plasma concentrations were detected simultaneously (plasma stored at −80°C refrigerator). The whole brain was stored at −80°C for later detection and then uniformly prepared into brain tissue homogenate to detect drug concentration. Use Excel to analyze the drug concentration—time data pharmacokinetic parameters through atrioventricular method.

[17] = 15 mg/kg (SYS18 high dose; edaravone i.p.), model 2.42 ± 0.84, p < 0.01
[18] = 15 mg/kg (SYS18 high dose; edaravone)
[19] = 15 mg/kg (SYS18 high dose; or edaravone positive control)

COc1ccc(-c2nc(-c3ccccc3O)n(-c3ccc(S(N)(=O)=O)cc3)n2)c(O)c1 [SYS18, 4‐(3‐(2‐hydroxy‐4‐methoxyphenyl)‐5‐(2‐hydroxyphenyl)‐1H‐1,2,4‐triazol‐1‐yl) benzenesulfonamide]
absorbance of Evans blue in peritoneal lavage fluid vs model group ([1]; SYS18 high dose 80 mg/kg once a day for 3 days): no statistical difference
absorbance of Evans blue in peritoneal lavage fluid vs model group ([1]; SYS18 low dose 20 mg/kg once a day for 3 days): did not significantly reduce
concentration of Evans blue in peritoneal lavage fluid vs model group ([1]; SYS18 medium dose 40 mg/kg once a day for 3 days): significantly reduced
neurological score ([2]; 7.5 mg/kg (low dose), model 2.42 ± 0.84, p > 0.05): 1.95 ± 0.74
neurological score [2, 17]: 1.52 ± 0.68
brain water content ([3]; 7.5 mg/kg (low dose), p > 0.05): 81.98% ± 1.18%
brain water content [3, 18]: 80.62% ± 1.73%
brain edema volume (T2-MRI) [4]: 11.01% ± 5.32%
MDA levels in serum vs model group [5]: reduced MDA levels in serum significantly
SOD level in serum vs model group [6]: could improve SOD level in serum
TNF-α in serum vs model group [7]: significantly decreased
IL-1β in serum vs model group [8]: significantly decreased
histological damage of nerve cells in cerebral cortex (HE staining) [9]: the necrosis of nerve cell in the brain tissue was attenuated
Evans blue content in brain tissue ([10]; 7.5 mg/kg (low dose), p > 0.05 vs model): 7.06 ± 1.58 µg/g
Evans blue content in brain tissue [10, 19]: 5.74 ± 0.54 µg/g
syndecan-1 in brain tissue vs model group [11]: significantly increased
HS in serum vs model group [12]: decreased
HPSE in brain tissue vs model group [13]: decreased
fluorescent intensity of claudin-5 vs model group [14]: fluorescent intensity increased
fluorescent intensity of MMP-9 vs model group [15]: decreased
Cmax ([16]; SD, rat, brain, ip, 15 mg/kg): 464 ng/g
MRT ([16]; SD, rat, brain, ip, 15 mg/kg): 7.15 h
k el ([16]; SD, rat, brain, ip, 15 mg/kg): 3.75e-05 s⁻¹
Kp ([16]; SD, rat, ip, 15 mg/kg, B/P (ratio of total drug concentration in brain to plasma), rats, 15 mg/kg i.p., at 1–2 h): > 0.2
Kp ([16]; SD, rat, ip, 15 mg/kg, B/P (ratio of total drug concentration in brain to plasma), rats, 15 mg/kg i.p., at 4–6 h): > 0.4
Kp ([16]; SD, rat, ip, 15 mg/kg, cerebral‐blood ratio of area under the curve (AUC0‐t), rats, 15 mg/kg i.p.): > 0.4
Tmax ([16]; SD, rat, in vivo, ip, 15 mg/kg): 2 h
half-life ([16]; SD, rat, in vivo, ip, 15 mg/kg): 5.12 h
CL/F ([16]; SD, rat, plasma, ip, 15 mg/kg): 16.7 mL/min/kg
Cmax ([16]; SD, rat, plasma, ip, 15 mg/kg): 1850 ng/mL
MRT ([16]; SD, rat, plasma, ip, 15 mg/kg): 3.87 h
Tmax ([16]; SD, rat, plasma, ip, 15 mg/kg): 1 h
Vd/F ([16]; SD, rat, plasma, ip, 15 mg/kg): 3 L/kg
half-life ([16]; SD, rat, plasma, ip, 15 mg/kg): 3.17 h
k el ([16]; SD, rat, plasma, ip, 15 mg/kg): 6.06e-05 s⁻¹
AUC ([16]; SD, rat, plasma, ip, 15 mg/kg, AUC0‐inf_obs, blood, rats, 15 mg/kg i.p.): 8520 ng·h/mL
AUC ([16]; SD, rat, plasma, ip, 15 mg/kg, AUC0‐t, blood, rats, 15 mg/kg i.p.): 8440 ng·h/mL
AUC ([16]; SD, rat, plasma, ip, 15 mg/kg, area under the curve (AUC0‐t), blood, rats): 8440 ng·h/mL
AUMC0‐inf_obs ([16]; blood, rats, 15 mg/kg i.p.): 32940.745 ng/mg × h^2
Tlag ([16]; blood, rats, 15 mg/kg i.p.): 0 h
AUC0‐inf_obs ([16]; brain, rats, 15 mg/kg i.p.): 3700.110 ng·h/mg
AUC0‐t ([16]; brain, rats, 15 mg/kg i.p.): 3504.387 ng·h/mg
AUMC0‐inf_obs ([16]; brain, rats, 15 mg/kg i.p.): 26458.752 ng/mg × h^2
Tlag ([16]; brain, rats, 15 mg/kg i.p.): 0 h
area under the curve (AUC0‐t) ([16]; brain, rats, i.p.): 3500 ng·h/mg

CC1=NN(c2ccccc2)C(=O)C1 [edaravone, reference compound]
neurological score [2, 17]: 1.50 ± 0.61
brain water content [3, 18]: 81.13% ± 1.98%
SOD level in serum vs model group [6]: could improve SOD level in serum
TNF-α in serum vs model group [7]: significantly decreased
IL-1β in serum vs model group [8]: significantly decreased
Evans blue content in brain tissue [10, 19]: 6.20 ± 2.76 µg/g

Reference: PMC11537802, “The Neuroprotection of 1,2,4‐Triazole Derivative by Inhibiting Inflammation and Protecting BBB Integrity in Acute Ischemic Stroke” (CNS Neuroscience & Therapeutics, 2024)
